Laboratory results reported in ChEMBL document CHEMBL1138876, “An introduction of a pyridine group into the structure of prolyl oligopeptidase inhibitors” (Bioorg Med Chem Lett, 2006).
Converted amounts (≈) assume the structure as drawn.

What was measured:
[1] = Inhibition of POP in pig brain; parameters: species or system Sus scrofa
[2] = Solubility in phosphate buffer at pH 7.4; format: physicochemical
[3] = Partition co-efficient, log P by shake-flask method; format: physicochemical; settings: octanol/water
[4] = Partition co-efficient, log P by pH metric titration; format: physicochemical; settings: octanol/water
[5] = Dissociation constant, pKa of the compound; format: physicochemical

SMILES	IC50 [1] [nM]	solubility [2] [µg/mL]	logP [3]	logP [4]	pKa [5]
O=C([C@@H]1CCCN1C(=O)Cc1cccnc1)N1CCCC1	56	–	–	-0.2	–
O=C(NCc1ccccn1)C1=CCCC1C(=O)N1CCCC1 (stereo not drawn)	24	–	–	0.3	4.4
O=C(NCCc1ccccc1)C1=CCCC1C(=O)N1CCCC1 (stereo not drawn)	1.5	–	1.9	–	–
O=C([C@@H]1CCCN1C(=O)CCCc1ccccc1)N1CCCC1	–	> 6000	–	–	–
O=C(NCCc1ccccn1)C1=CCCC1C(=O)N1CCCC1 (stereo not drawn)	5.2	–	–	0.6	4.4
O=C(NCc1cccnc1)C1=CCCC1C(=O)N1CCCC1 (stereo not drawn)	9.7	> 6000	–	0.4	4.4
O=C(NCc1ccncc1)C1=CCCC1C(=O)N1CCCC1 (stereo not drawn)	19	–	–	0.4	4.4
O=C([C@@H]1CCCN1C(=O)CCc1cccnc1)N1CCCC1	30	–	–	0.3	–
O=C(NCCc1ccncc1)C1=CCCC1C(=O)N1CCCC1 (stereo not drawn)	4.8	–	–	0.5	4.4

Now from value to molecule:

IC50 [1] [nM]	solubility [2] [µg/mL]	logP [3]	logP [4]	pKa [5]	SMILES
9	3000 (≈ 10.1 mM)	1.6	–	–	O=C(NCc1ccccc1)C1=CCCC1C(=O)N1CCCC1 (stereo not drawn)
44	–	–	-0.3	–	O=C([C@@H]1CCCN1C(=O)c1cccnc1)N1CCCC1
13	–	–	1.8	–	CC(C)(C)[C@H]1CC[C@@H](C(=O)N2CCCC2)N1C(=O)CCc1cccnc1
2.2	–	–	0.6	4.4	O=C(NCCc1cccnc1)C1=CCCC1C(=O)N1CCCC1 (stereo not drawn)
2.1	> 6000	–	2	–	CC(C)(C)[C@H]1CC[C@@H](C(=O)N2CCCC2)N1C(=O)CCCc1cccnc1
–	900 (≈ 2.43 mM)	3.3	–	–	CC(C)(C)[C@H]1CC[C@@H](C(=O)N2CCCC2)N1C(=O)CCCc1ccccc1
